# Measured values reported in patent US10829501B2 (BRISTOL-MYERS SQUIBB COMPANY, priority 2016, dated 2020).
# Structures can show the parent of a compound that is named as a salt.
# Biological target: ROCK2 (Homo sapiens, UniProt O75116)
# Assay: ROCK2 kinase inhibition assay (LABCHIP 3000 Reader, FITC peptide substrate);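 note: rho kinase reaction read by separating phosphorylated from unphosphorylated peptide on chip, with inhibition of kinase activity computed per concentration across a dose-response series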
# Conditions: not given
# Sequence of ROCK2 (O75116 whole entry, species assumed): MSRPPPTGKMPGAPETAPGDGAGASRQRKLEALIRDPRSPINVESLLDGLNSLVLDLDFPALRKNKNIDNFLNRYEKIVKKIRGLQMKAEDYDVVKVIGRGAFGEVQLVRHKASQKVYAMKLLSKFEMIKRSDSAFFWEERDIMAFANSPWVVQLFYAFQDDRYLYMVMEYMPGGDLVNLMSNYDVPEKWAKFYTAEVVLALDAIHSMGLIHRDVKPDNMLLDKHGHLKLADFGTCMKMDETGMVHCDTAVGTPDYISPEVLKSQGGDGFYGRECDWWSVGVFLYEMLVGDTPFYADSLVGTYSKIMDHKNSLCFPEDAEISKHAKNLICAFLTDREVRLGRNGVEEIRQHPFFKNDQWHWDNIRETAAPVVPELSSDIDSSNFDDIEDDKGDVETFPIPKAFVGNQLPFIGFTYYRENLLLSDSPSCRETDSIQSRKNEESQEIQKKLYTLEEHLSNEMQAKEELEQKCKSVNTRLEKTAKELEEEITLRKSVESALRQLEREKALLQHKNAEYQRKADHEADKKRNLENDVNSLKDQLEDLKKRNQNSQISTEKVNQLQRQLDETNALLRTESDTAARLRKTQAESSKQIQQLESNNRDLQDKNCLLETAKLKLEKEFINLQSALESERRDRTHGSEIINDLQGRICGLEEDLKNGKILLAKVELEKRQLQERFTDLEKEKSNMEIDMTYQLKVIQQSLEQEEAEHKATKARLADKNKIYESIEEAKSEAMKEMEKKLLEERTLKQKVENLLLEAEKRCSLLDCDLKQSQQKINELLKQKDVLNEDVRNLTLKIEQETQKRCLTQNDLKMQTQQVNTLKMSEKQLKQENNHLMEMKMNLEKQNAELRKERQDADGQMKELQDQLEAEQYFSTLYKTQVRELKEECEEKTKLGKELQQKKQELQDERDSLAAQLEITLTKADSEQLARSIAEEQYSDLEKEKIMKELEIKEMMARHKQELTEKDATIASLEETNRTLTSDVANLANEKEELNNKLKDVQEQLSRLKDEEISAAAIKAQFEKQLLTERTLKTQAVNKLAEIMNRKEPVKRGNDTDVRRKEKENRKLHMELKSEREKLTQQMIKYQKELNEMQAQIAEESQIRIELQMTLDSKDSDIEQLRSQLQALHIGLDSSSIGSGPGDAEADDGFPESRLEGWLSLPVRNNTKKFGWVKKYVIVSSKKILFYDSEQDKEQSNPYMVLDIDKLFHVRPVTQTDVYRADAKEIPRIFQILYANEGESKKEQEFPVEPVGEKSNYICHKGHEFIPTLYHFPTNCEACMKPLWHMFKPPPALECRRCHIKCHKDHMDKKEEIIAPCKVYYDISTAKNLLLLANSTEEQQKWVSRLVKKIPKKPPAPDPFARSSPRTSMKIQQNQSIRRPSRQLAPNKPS
row,IC50 [nM],Compound
1,5 to 50,"Cn1cc(-c2ccc3c(C(=O)NC4CC5(C4)CC(Oc4ncccc4C(N)=O)C5)nc(C(F)F)n3c2)c(C(F)(F)F)n1 [Example 438, N-((aR)-6-((3-carbamoylpyridin-2-yl)oxy)spiro[3.3]heptan-2-yl)-3-(difluoromethyl)-6-(1-methyl-3-(trifluoromethyl)-1H-pyrazol-4-yl)imidazo[1,5-a]pyridine-1-carboxamide]"
2,50 to 250,"[H][C@]1(Oc2ncccc2C(N)=O)C[C@]2(C[C@@H](NC(=O)c3cn4ccc(OCc5ccccc5)cc4n3)C2)C1 (stereo partly drawn) [Example 463, 7-(benzyloxy)-N-((aR)-6-((3-carbamoylpyridin-2-yl)oxy)spiro 3.31 heptan-2-yl)imidazo[1,2-a]pyridine-2-carboxamide, TFA Salt]"
3,250 to 2500,"[H][C@]1(Oc2ncccc2C(N)=O)C[C@]2(C[C@@H](NC(=O)c3cn4cc(OC)ccc4n3)C2)C1 (stereo partly drawn) [Example 464, N-((aR)-6-((3-carbamoylpyridin-2-yl)oxy)spiro[3.3]heptan-2-yl)-6-methoxyimidazo[1,2-a]pyridine-2-carboxamide, TFA Salt]"

# Same assay, conditions: read-out: ROCK2 Activity (ROCK2 IC50); 5 μM ATP, 1.5 μM peptide substrate, pH 7.5
row,Compound,IC50 [nM]
1,"CC(C)(O)CCOc1ccc2c(C(=O)NC3CC4(C3)CC(Oc3ncccc3C(N)=O)C4)nc(C(F)F)n2c1 [Example 441, N-((aR)-6-((3-carbamoylpyridin-2-yl)oxy)spiro[3.3]heptan-2-yl)-3-(difluoromethyl)-6-(3-hydroxy-3-methylbutoxy)imidazo[1,5-a]pyridine-1-carboxamide]",< 5
2,"CC(C)(O)CNc1ccc2c(C(=O)NC3CC4(C3)CC(Oc3ncccc3C(N)=O)C4)nc(C(F)F)n2c1 [Example 442, N-((aR)-6-((3-carbamoylpyridin-2-yl)oxy)spiro[3.3]heptan-2-yl)-3-(difluoromethyl)-6-((2-hydroxy-2-methylpropyl)amino)imidazo[1,5-a]pyridine-1-carboxamide]",250 to 2500
3,"CC(C)(CN)Oc1ccc2c(C(=O)NC3CC4(C3)CC(Oc3ncccc3C(N)=O)C4)nc(C(F)F)n2c1 [Example 443, 6-((1-amino-2-methylpropan-2-yl)oxy)-N-((aR)-6-((3-carbamoylpyridin-2-yl)oxy)spiro[3.3]heptan-2-yl)-3-(difluoromethyl)imidazo[1,5-a]pyridine-1-carboxamide]",250 to 2500
4,"CC(=O)N(C)Cc1ccc2c(C(=O)NC3CC4(C3)CC(Oc3ncccc3C(N)=O)C4)nc(C(F)F)n2c1 [Example 453, N-((aR)-6-((3-carbamoylpyridin-2-yl)oxy)spiro[3.3]heptan-2-yl)-3-(difluoromethyl)-6-((N-methylacetamido)methyl)imidazo[1,5-a]pyridine-1-carboxamide]",5 to 50
5,"NC(=O)c1cccnc1OC1CC2(CC(NC(=O)c3nc(C(F)F)n4cc(N5CCN[C@H](CO)C5)ccc34)C2)C1 (stereo partly drawn) [Example 455, N-((aR)-6-((3-carbamoylpyridin-2-yl)oxy)spiro[3.3]heptan-2-yl)-3-(difluoromethyl)-6-((S)-3-(hydroxymethyl)piperazin-1-yl)imidazo[1,5-a]pyridine-1-carboxamide]",5 to 50
6,"Cc1nc(C(=O)NC2CC3(C2)CC(Oc2ncccc2C(N)=O)C3)c2ccc(Br)cn12 [Example 457, 6-bromo-N-((aR)-6-((3-carbamoylpyridin-2-yl)oxy)spiro[3.3]heptan-2-yl)-3-methylimidazo[1,5-a]pyridine-1-carboxamide]",50 to 250
7,"Cc1c(-c2ccc3c(C(=O)NC4CC5(C4)CC(Oc4ncccc4C(N)=O)C5)nc(C)n3c2)cnn1C [Example 458, N-((aR)-6-((3-carbamoylpyridin-2-yl)oxy)spiro[3.3]heptan-2-yl)-6-(1,5-dimethyl-H-pyrazol-4-yl)-3-methylimidazo[1,5-a]pyridine-1-carboxamide]",5 to 50
8,"Cc1nn(C)cc1-c1ccc2c(C(=O)NC3CC4(C3)CC(Oc3ncccc3C(N)=O)C4)nc(C)n2c1 [Example 459, N-((aR)-6-((3-carbamoylpyridin-2-yl)oxy)spiro[3.3]heptan-2-yl)-6-(1,3-dimethyl-1H-pyrazol-4-yl)-3-methylimidazo[1,5-a]pyridine-1-carboxamide]",5 to 50
9,"Cc1nc(C(=O)NC2CC3(C2)CC(Oc2ncccc2C(N)=O)C3)c2ccc(-c3cnn(C)c3)cn12 [Example 460, N-((aR)-6-((3-carbamoylpyridin-2-yl)oxy)spiro[3.3]heptan-2-yl)-3-methyl-6-(1-methyl-1H-pyrazol-4-yl)imidazo[1,5-a]pyridine-1-carboxamide]",5 to 50
10,"NC(=O)c1cccnc1OC1CC2(CC(NC(=O)c3nc(N)nc4ccccc34)C2)C1 [Example 461, 2-Amino-N-((aR)-6-((3-carbamoylpyridin-2-yl)oxy)spiro[3.3]heptan-2-yl)quinazoline-4-carboxamide, 2 TFA]",50 to 250
11,"N-((aR)-6-((3- carbamoylpyridin-2- yl)oxxy)spiro[3.3] heptan-2-yl)- 5-fluoro-1- (2-hydroxy-2- methylpropyl)- 3a,7a-dihydro- 1H-indazole-3- carboxamide, trifluoroacetate [Example 67]",5 to 50
12,"N-((aR)-6-((3- carbamoylpyridin-2- yl)oxy))spiro[3.3] heptan-2-yl)- 6-((E)-3,3,3- trifluoroprop-1- en-1-yl) pyrazolo[1,5- a]pyridine-3- carboxamide, trifluoroacetate [Example 116]",5 to 50

# Further lines, results first:
row,IC50 [nM],Compound
1,< 5,"Cn1cc(-c2ccc3c(C(=O)NC4CC5(C4)CC(Oc4ncccc4C(N)=O)C5)nc(C(F)F)n3c2)cn1 [Example 439, N-((aR)-6-((3-carbamoylpyridin-2-yl)oxy)spiro[3.3]heptan-2-yl)-3-(difluoromethyl)-6-(1-methyl-1H-pyrazol-4-yl)imidazo[1,5-a]pyridine-1-carboxamide]"
2,< 5,"NC(=O)c1cccnc1OC1CC2(CC(NC(=O)c3nc(C(F)F)n4cc(N5CCOCC5)ccc34)C2)C1 [Example 440, N-((aR)-6-((3-carbamoylpyridin-2-yl)oxy)spiro[3.3]heptan-2-yl)-3-(difluoromethyl)-6-morpholinoimidazo[1,5-a]pyridine-1-carboxamide]"
3,< 5,"C[C@@H]1CN(c2ccc3c(C(=O)NC4CC5(C4)CC(Oc4ncccc4C(N)=O)C5)nc(C(F)F)n3c2)C[C@H](C)O1 (stereo partly drawn) [Example 444, N-((aR)-6-((3-carbamoylpyridin-2-yl)oxy)spiro[3.3]heptan-2-yl)-3-(difluoromethyl)-6-((2S,6R)-2,6-dimethylmorpholino)imidazo[1,5-a]pyridine-1-carboxamide]"
4,< 5,"Cc1nn(C)cc1-c1ccc2c(C(=O)NC3CC4(C3)CC(Oc3ncccc3C(N)=O)C4)nc(C(F)F)n2c1 [Example 445, N-((aR)-6-((3-carbamoylpyridin-2-yl)oxy)spiro[3.3]heptan-2-yl)-3-(difluoromethyl)-6-(1,3-dimethyl-1H-pyrazol-4-yl)imidazo[1,5-a]pyridine-1-carboxamide]"
5,< 5,"Cc1ncc(-c2cc(C(=O)NC3CC4(C3)CC(Oc3ncccc3C(N)=O)C4)cc(C(F)(F)F)c2)s1 [Example 446, 2-(((aR)-6-(3-(2-methylthiazol-5-yl)-5-(trifluoromethyl)benzamido)spiro[3.3]heptan-2-yl)oxy)nicotinamide]"
6,5 to 50,"Cn1cc(-c2cc(C(=O)NC3CC4(C3)CC(Oc3ncccc3C(N)=O)C4)cc(C(F)(F)F)c2)c(C(F)(F)F)n1 [Example 447, 2-(((aR)-6-(3-(1-methyl-3-(trifluoromethyl)-1H-pyrazol-4-yl)-5-(trifluoromethyl)benzamido)spiro[3.3]heptan-2-yl)oxy)nicotinamide]"
7,< 5,"Cc1nn(C)cc1-c1cc(C(=O)NC2CC3(C2)CC(Oc2ncccc2C(N)=O)C3)cc(C(F)(F)F)c1 [Example 448, 2-(((aR)-6-(3-(1,3-dimethyl-1H-pyrazol-4-yl)-5-(trifluoromethyl)benzamido)spiro[3.3]heptan-2-yl)oxy)nicotinamide]"
8,5 to 50,"Cn1cncc1-c1cc(C(=O)NC2CC3(C2)CC(Oc2ncccc2C(N)=O)C3)cc(C(F)(F)F)c1 [Example 449, 2-(((aR)-6-(3-(1-methyl-1H-imidazol-5-yl)-5-(trifluoromethyl)benzamido)spiro[3.3]heptan-2-yl)oxy)nicotinamide]"
9,5 to 50,"CC1(O)CCN(c2cc(C(=O)NC3CC4(C3)CC(Oc3ncccc3C(N)=O)C4)cc(C(F)(F)F)c2)CC1 [Example 450, 2-(((aR)-6-(3-(4-hydroxy-4-methylpiperidin-1-yl)-5-(trifluoromethyl)benzamido)spiro[3.3]heptan-2-yl)oxy)nicotinamide]"
10,5 to 50,"NC(=O)c1cccnc1OC1CC2(CC(NC(=O)c3nc(C(F)F)n4cc(N5CCOC(CCO)C5)ccc34)C2)C1 [Example 451, N-((aR)-6-((3-carbamoylpyridin-2-yl)oxy)spiro[3.3]heptan-2-yl)-3-(difluoromethyl)-6-(2-(2-hydroxyethyl)morpholino)imidazo[1,5-a]pyridine-1-carboxamide]"
11,5 to 50,"NC(=O)c1cccnc1OC1CC2(CC(NC(=O)c3cc(N4CC5CC4CO5)cc(C(F)(F)F)c3)C2)C1 [Example 452, 2-(((aR)-6-(3-(2-oxa-5-azabicyclo[2.2.1]heptan-5-yl)-5-(trifluoromethyl)benzamido)spiro[3.3]heptan-2-yl)oxy)nicotinamide]"
12,< 5,"Cc1c(-c2cc(C(=O)NC3CC4(C3)CC(Oc3ncccc3C(N)=O)C4)cc(C(F)(F)F)c2)cnn1C [Example 454, 2-(((aR)-6-(3-(1,5-dimethyl-1H-pyrazol-4-yl)-5-(trifluoromethyl)benzamido)spiro[3.3]heptan-2-yl)oxy)nicotinamide]"
13,< 5,"NC(=O)c1cccnc1OC1CC2(CC(NC(=O)c3cc(N4CC5CCC(C4)O5)cc(C(F)(F)F)c3)C2)C1 [Example 456, 2-(((aR)-6-(3-(8-oxa-3-azabicyclo[3.2.1]octan-3-yl)-5-(trifluoromethyl)benzamido)spiro[3.3]heptan-2-yl)oxy)nicotinamide]"
14,< 5,"NC(=O)c1cccnc1OC1CC2(CC(NC(=O)c3cnn4c(C5CC5)c(OCC5(O)CCC5)ccc34)C2)C1 [Example 462, N-((aR)-6-((3-carbamoylpyridin-2-yl)oxy)spiro[3.3]heptan-2-yl)-7-cyclopropyl-6-((1-hydroxycyclobutyl)methoxy)pyrazolo[1,5-a]pyridine-3-carboxamide, TFA]"
